Columns and labels:
CSNK1A1 = CSNK1A1 (Homo sapiens (Human), UniProt P48729); test: CSNK1A1 Assay 2 (ADP-Glo, 1 μM ATP); format: biochemical; settings: median, read-out: CSNK1A1 Assay 2 IC50 [mol/l] (median)
Protocol: CSNK1A1-inhibitory activity of compounds of the present invention in presence of 1 μM adenosine-tri-phosphate (ATP) was quantified employing the CSNK1A1 assay as described in the following paragraphs. In essence, the enzyme activity is measured by quantification of the adenosine-di-phosphate (ADP), which is generated as a co-product of the enzyme reaction, via the “ADP-Glo™ Kinase Assay” kit from the company Promega. This detection system works as follows: In a first step the ATP not consumed in the kinase reaction is quantitatively converted to cAMP employing an adenylate cyclase (“ADP-Glo-reagent”), then the adenylate cyclase is stopped and the ADP generated in the kinase reaction converted to ATP which generates in a luciferase-based reaction a glow-luminescence signal (“Kinase Detection Reagent”).
As substrate for the kinase reaction the biotinylated peptide biotin-Ahx-KRRRAL-pS-VASLPGL (C-terminus in amide form) was used which can be purchased e.g. from the company Biosyntan (Berlin-Buch, Germany).
For the assay 50 nl of a 100 fold concentrated solution of the test compound in DMSO was pipetted into a white 1536-well microtiter plate (Greiner Bio-One, Frickenhausen, Germany), 2 μL of a solution of CSNK1A1 in aqueous assay buffer [50 mM HEPES pH 7.5, 10% (v/v) glycerol, 10 mM MgCl2, 50 mM NaCl, 1 mM dithiothreitol, 0.01% (w/v) bovine serum albumin, 0.01% (v/v) Triton X-100] were added and the mixture was incubated for 15 min at 22° C. to allow pre-binding of the test compounds to the enzyme before the start of the kinase reaction. […] The concentration of CSNK1A1 was adjusted depending of the activity of the enzyme lot and was chosen appropriate to have the assay in the linear range, a typical concentrations are about 0.0375 ng/μL. The reaction was stopped by the addition of 2.5 μL of “ADP-Glo-reagent” (1:1.5 fold diluted with water) and the resulting mixture was incubated at 22° C. for 1 h to convert the ATP not consumed in the kinase reaction completely […]. Subsequently 2.5 μL of the “kinase detection reagent” (1.2 fold more concentrated than recommended by the producer) were added, the resulting mixture was incubated at 22° C. for 1 h and then the luminescence measured with a suitable measurement instrument (e.g. Viewlux™ from Perkin-Elmer). The amount of emitted light was taken as a measure for the amount of ADP generated and thereby for the activity of the CSNK1A1.

CSNK1D = CSNK1D (Homo sapiens (Human), UniProt P48730); test: CSNK1D Assay (ADP-Glo, 1 μM ATP); format: biochemical; settings: median, read-out: CSNK1D IC50 [mol/l] (median)
Protocol: CSNK1D-inhibitory activity of compounds of the present invention in presence of 1 μM adenosine-tri-phosphate (ATP) was quantified employing the CSNK1 D assay as described in the following paragraphs. In essence, the enzyme activity is measured by quantification of the adenosine-di-phosphate (ADP), which is generated as a co-product of the enzyme reaction, via the “ADP-Glo™ Kinase Assay” kit from the company Promega. This detection system works as follows: In a first step the ATP not consumed in the kinase reaction is quantitatively converted to cAMP employing an adenylate cyclase (“ADP-Glo-reagent”), then the adenylate cyclase is stopped and the ADP generated in the kinase reaction converted to ATP which generates in a luciferase-based reaction a glow-luminescence signal (“Kinase Detection Reagent”).
As substrate for the kinase reaction the biotinylated peptide Btn-Ahx-[…] (C-terminus in amide form) was used which can be purchased e.g. from the company Biosyntan (Berlin-Buch, Germany).
For the assay 50 nl of a 100 fold concentrated solution of the test compound in DMSO was pipetted into a white 1536-well microtiter plate (Greiner Bio-One, Frickenhausen, Germany), 2 μL of a solution of CSNK1D in aqueous assay buffer [50 mM HEPES pH 7.5, 10% (v/v) glycerol, 10 mM MgCl2, 50 mM NaCl, 1 mM dithiothreitol, 0.01% (w/v) bovine serum albumin, 0.01% (v/v) Triton X-100] were added and the mixture was incubated for 15 min at 22° C. to allow pre-binding of the test compounds to the enzyme before the start of the kinase reaction. […] The concentration of CSNK1D was adjusted depending of the activity of the enzyme lot and was chosen appropriate to have the assay in the linear range, a typical concentration is about 0.5 ng/μL. The reaction was stopped by the addition of 2.5 μL of “ADP-Glo-reagent” (1:1.5 fold diluted with water) and the resulting mixture was incubated at 22° C. for 1 h to convert the ATP not consumed in the kinase reaction completely […]. Subsequently 2.5 μL of the “kinase detection reagent” (1.2 fold more concentrated than recommended by the producer) were added, the resulting mixture was incubated at 22° C. for 1 h and then the luminescence measured with a suitable measurement instrument (e.g. Viewlux™ from Perkin-Elmer). The amount of emitted light was taken as a measure for the amount of ADP generated and thereby for the activity of the CSNK1D.

Sequence of CSNK1D (P48730 whole entry): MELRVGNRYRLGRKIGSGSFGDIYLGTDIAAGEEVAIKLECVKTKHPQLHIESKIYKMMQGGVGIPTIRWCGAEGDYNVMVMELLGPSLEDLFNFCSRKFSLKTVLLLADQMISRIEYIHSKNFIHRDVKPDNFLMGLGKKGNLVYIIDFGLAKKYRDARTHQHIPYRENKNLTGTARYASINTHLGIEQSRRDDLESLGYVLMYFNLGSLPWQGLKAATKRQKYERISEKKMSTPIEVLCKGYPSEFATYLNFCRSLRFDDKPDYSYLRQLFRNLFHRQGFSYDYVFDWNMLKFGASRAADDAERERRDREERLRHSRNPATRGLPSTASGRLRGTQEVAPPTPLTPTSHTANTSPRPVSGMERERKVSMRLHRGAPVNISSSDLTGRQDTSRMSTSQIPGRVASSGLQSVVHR
Sequence of CSNK1A1 (P48729 whole entry): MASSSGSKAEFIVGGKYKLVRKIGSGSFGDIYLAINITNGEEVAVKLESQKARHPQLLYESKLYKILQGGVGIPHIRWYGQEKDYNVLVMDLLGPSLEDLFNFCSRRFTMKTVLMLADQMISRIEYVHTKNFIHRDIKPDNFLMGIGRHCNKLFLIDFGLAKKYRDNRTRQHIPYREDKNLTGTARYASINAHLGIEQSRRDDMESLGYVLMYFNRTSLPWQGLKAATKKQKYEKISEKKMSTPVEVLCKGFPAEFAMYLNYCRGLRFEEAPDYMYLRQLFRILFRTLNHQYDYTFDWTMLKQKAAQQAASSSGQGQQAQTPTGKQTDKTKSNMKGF

Row | SMILES | IC50 (CSNK1A1) | IC50 (CSNK1D)
1 | Cc1cn(C)c(=O)c2c(-c3ccc(F)cc3)c(-c3ccnc(NC(=O)C(CC(F)F)c4ccc(F)cc4)c3)[nH]c12 (racemic) [Example 34, 4,4-difluoro-2-(4-fluorophenyl)-N-{4-[3-(4-fluorophenyl)-5,7-dimethyl-4-oxo-4,5-dihydro-1H-pyrrolo[3,2-c]pyridin-2-yl]pyridin-2-yl}butanamide] | 5.8 nM | 5.3 nM
2 | CC1(C)CNC(=O)c2c1[nH]c(-c1ccnc(NC(=O)C(CC(F)F)c3ccc(F)cc3)c1)c2-c1ccccc1 (single isomer, unassigned) [Example 45, N-[4-(7,7-dimethyl-4-oxo-3-phenyl-4,5,6,7-tetrahydro-1H-pyrrolo[3,2-c]pyridin-2-yl)pyridin-2-yl]-4,4-difluoro-2-(4-fluorophenyl)butanamide] | 2 nM | 2.7 nM
3 | Cc1cn(C)c(=O)c2c(-c3ccccc3)c(-c3ccnc(NC(=O)C(C)c4ccc(F)cc4)c3)[nH]c12 (racemic) [Example 38, N-[4-(5,7-dimethyl-4-oxo-3-phenyl-4,5-dihydro-1H-pyrrolo[3,2-c]pyridin-2-yl)pyridin-2-yl]-2-(4-fluorophenyl)propanamide] | 7.8 nM | 7.1 nM
4 | CN1CC(CC(F)(F)F)c2[nH]c(-c3ccnc(NC(=O)C(CC(F)F)c4ccc(F)cc4)c3)c(-c3ccc(F)cc3)c2C1=O (stereo not shown) [Example 25, 4,4-difluoro-2-(4-fluorophenyl)-N-{4-[3-(4-fluorophenyl)-5-methyl-4-oxo-7-(2,2,2-trifluoroethyl)-4,5,6,7-tetrahydro-1H-pyrrolo[3,2-c]pyridin-2-yl]pyridin-2-yl}butanamide] | 6.4 nM | 5 nM
5 | CC1CN(C)C(=O)c2c1[nH]c(-c1ccnc(NC(=O)C(C)c3ccc(F)cc3)c1)c2-c1ccccc1 (stereo not shown) [Example 37, N-{4-[5,7-dimethyl-4-oxo-3-phenyl-4,5,6,7-tetrahydro-1H-pyrrolo[3,2-c]pyridin-2-yl]pyridin-2-yl}-2-(4-fluorophenyl)propanamide] | 3.1 nM | 4.1 nM
6 | Cc1cn(C)c(=O)c2c(-c3ccccc3)c(-c3ccnc(NC(=O)C(CC(F)F)c4ccc(F)cc4)c3)[nH]c12 (racemic) [Example 40, N-[4-(5,7-dimethyl-4-oxo-3-phenyl-4,5-dihydro-1H-pyrrolo[3,2-c]pyridin-2-yl)pyridin-2-yl]-4,4-difluoro-2-(4-fluorophenyl)butanamide] | 4 nM | 4 nM
7 | CN1CCc2[nH]c(-c3ccnc(NC(=O)Cc4ccc(F)cc4)c3)c(-c3cccnc3)c2C1=O [Example 12, 2-(4-fluorophenyl)-N-{4-[5-methyl-4-oxo-3-(pyridin-3-yl)-4,5,6,7-tetrahydro-1H-pyrrolo[3,2-c]pyridin-2-yl]pyridin-2-yl}acetamide] | 10 nM | 13 nM
8 | CC1(C)CNC(=O)c2c1[nH]c(-c1ccnc(NC(=O)C(CC(F)F)c3ccc(F)cc3)c1)c2-c1ccccc1 (single isomer, unassigned) [Example 44, N-[4-(7,7-dimethyl-4-oxo-3-phenyl-4,5,6,7-tetrahydro-1H-pyrrolo[3,2-c]pyridin-2-yl)pyridin-2-yl]-4,4-difluoro-2-(4-fluorophenyl)butanamide] | 11 nM | 12 nM
9 | CC(C(=O)Nc1cc(-c2[nH]c3c(c2-c2ccc(F)cc2)C(=O)N(C)CC3CC(F)(F)F)ccn1)c1ccc(F)cc1 (stereo not shown) [Example 21, 2-(4-fluorophenyl)-N-{4-[3-(4-fluorophenyl)-5-methyl-4-oxo-7-(2,2,2-trifluoroethyl)-4,5,6,7-tetrahydro-1H-pyrrolo[3,2-c]pyridin-2-yl]pyridin-2-yl}propanamide] | 8.6 nM | 6.6 nM
10 | CC(C(=O)Nc1cc(-c2[nH]c3c(CC4CC4)cn(C)c(=O)c3c2-c2ccccc2)ccn1)c1ccc(F)cc1 (racemic) [Example 58, N-{4-[7-(cyclopropylmethyl)-5-methyl-4-oxo-3-phenyl-4,5-dihydro-1H-pyrrolo[3,2-c]pyridin-2-yl]pyridin-2-yl}-2-(4-fluorophenyl)propanamide] | 5.2 nM | 4 nM
11 | CN1CCc2[nH]c(-c3ccnc(NC(=O)C(CC(F)F)c4ccc(F)cc4)c3)c(-c3ccccc3)c2C1=O (single isomer, unassigned) [Example 4, 4,4-difluoro-2-(4-fluorophenyl)-N-[4-(5-methyl-4-oxo-3-phenyl-4,5,6,7-tetrahydro-1H-pyrrolo[3,2-c]pyridin-2-yl)pyridin-2-yl]butanamide] | 1.1 nM | 2.3 nM
12 | CC1CN(C)C(=O)c2c1[nH]c(-c1ccnc(NC(=O)C(C)c3ccc(F)cc3)c1)c2-c1ccc(F)cc1 (stereo not shown) [Example 29, 2-(4-fluorophenyl)-N-{4-[3-(4-fluorophenyl)-5,7-dimethyl-4-oxo-4,5,6,7-tetrahydro-1H-pyrrolo[3,2-c]pyridin-2-yl]pyridin-2-yl}propanamide] | 2.9 nM | 4.1 nM
13 | CC(C(=O)Nc1cc(-c2[nH]c3c(c2-c2ccc(F)cc2)C(=O)N(C)CC3CC2CC2)ccn1)c1ccc(F)cc1 (stereo not shown) [Example 62, N-{4-[7-(cyclopropylmethyl)-3-(4-fluorophenyl)-5-methyl-4-oxo-4,5,6,7-tetrahydro-1H-pyrrolo[3,2-c]pyridin-2-yl]pyridin-2-yl}-2-(4-fluorophenyl)propanamide] | 7.6 nM | 4 nM
14 | Cc1cn(C)c(=O)c2c(-c3ccc(F)cc3)c(-c3ccnc(NC(=O)C(C)c4ccc(F)cc4)c3)[nH]c12 (racemic) [Example 30, 2-(4-fluorophenyl)-N-{4-[3-(4-fluorophenyl)-5,7-dimethyl-4-oxo-4,5-dihydro-1H-pyrrolo[3,2-c]pyridin-2-yl]pyridin-2-yl}propanamide] | 5.7 nM | 3.8 nM
15 | CC(C(=O)Nc1cc(-c2[nH]c3c(CC(F)(F)F)cn(C)c(=O)c3c2-c2ccccc2)ccn1)c1ccc(F)cc1 (single isomer, unassigned; (-)) [Example 16, (−)-2-(4-fluorophenyl)-N-{4-[5-methyl-4-oxo-3-phenyl-7-(2,2,2-trifluoroethyl)-4,5-dihydro-1H-pyrrolo[3,2-c]pyridin-2-yl]pyridin-2-yl}propanamide] | 7.7 nM | 4.4 nM
16 | CN1CCc2[nH]c(-c3ccnc(NC(=O)C(CC(F)F)c4ccc(F)cc4)c3)c(-c3ccccc3)c2C1=O (racemic) [Example 2, 4,4-difluoro-2-(4-fluorophenyl)-N-[4-(5-methyl-4-oxo-3-phenyl-4,5,6,7-tetrahydro-1H-pyrrolo[3,2-c]pyridin-2-yl)pyridin-2-yl]butanamide] | 1.7 nM | 3.3 nM
17 | CN1CCc2[nH]c(-c3ccnc(NC(=O)C(CC(F)F)c4ccc(F)cc4)c3)c(-c3cccnc3)c2C1=O (racemic) [Example 9, 4,4-difluoro-2-(4-fluorophenyl)-N-{4-[5-methyl-4-oxo-3-(pyridin-3-yl)-4,5,6,7-tetrahydro-1H-pyrrolo[3,2-c]pyridin-2-yl]pyridin-2-yl}butanamide] | 7.8 nM | 9.2 nM

Reference: patent publication US20230322767A1, “ARYL SUBSTITUTED PYRROLO-PYRIDINONES AND THERAPEUTIC USES THEREOF” (Bayer Aktiengesellschaft, priority 2020, published 2023)
